Assay results reported in article PMC12371494, “Discovery of YTHDF2 Ligands by Fragment-Based Design” (ACS Bio & Med Chem Au, 2025).
Where two headings read alike, the source gives them in different places.

Target: T1, GST-YTHDF2 (Homo sapiens, UniProt Q9Y5A9)
T1 construct: made in house
T1 sequence (Q9Y5A9 1-579): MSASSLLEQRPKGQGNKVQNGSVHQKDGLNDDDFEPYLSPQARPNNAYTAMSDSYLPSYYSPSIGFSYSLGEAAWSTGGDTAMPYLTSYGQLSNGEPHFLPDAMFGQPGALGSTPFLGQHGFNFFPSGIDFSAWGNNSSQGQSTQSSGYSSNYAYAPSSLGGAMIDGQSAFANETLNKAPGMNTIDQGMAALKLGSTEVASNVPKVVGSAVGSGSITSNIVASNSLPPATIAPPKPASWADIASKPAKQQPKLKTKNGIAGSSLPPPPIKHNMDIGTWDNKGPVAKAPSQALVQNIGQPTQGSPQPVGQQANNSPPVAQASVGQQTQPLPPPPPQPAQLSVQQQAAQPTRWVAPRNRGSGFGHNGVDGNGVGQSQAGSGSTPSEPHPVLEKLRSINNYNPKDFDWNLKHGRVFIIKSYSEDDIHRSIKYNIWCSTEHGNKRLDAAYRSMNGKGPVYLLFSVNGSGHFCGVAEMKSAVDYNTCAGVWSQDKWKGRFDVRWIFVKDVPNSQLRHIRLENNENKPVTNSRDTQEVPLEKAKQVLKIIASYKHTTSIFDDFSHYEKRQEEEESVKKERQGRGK
Assay: HTRF-based binding assay, competition with m6A-oligoRNA, DF2
Conditions: for Residual signal at 1 mM concentration / % at 100 µM: HTRF; for Residual signal at 1 mM concentration: 1 mM compound, relative to control, average of two technical replicates, * = interference with the assay; for LE (ligand efficiency, DF2): LE = -RT ln IC50/HAC from HTRF IC50; for % at 100 µM: 100 µM compound

[1] = dose-response, competitor m6A-oligoRNA, read-out: DF2 IC50 (HTRF assay)

Row | Compound | Residual signal at 1 mM concentration | also measured
1 | CC(=O)Nc1nnc(C=Cc2cccc([N+](=O)[O-])c2)s1 (mixture of isomers) [Compound S17] | 77% | 
2 | CC=CC=C1C(=O)NC(=S)NC1=O [Compound 1] | 26% | IC50: 19 µM; LE (ligand efficiency, DF2): 0.50 kcal/(mol HAC)
3 | Cc1ccccc1NN=C1C(=O)NC(=S)NC1=O [Compound 2] | 12% | IC50: 170 µM; LE (ligand efficiency, DF2): 0.29 kcal/(mol HAC)
4 | CNc1cc(=O)[nH]c(=O)[nH]1 [Compound 4] | 18% | LE (ligand efficiency, DF2): 0.49 kcal/(mol HAC); IC50 [1]: 250 µM
5 | CNc1ncccc1C(N)=O [Compound 5] | 88% | 
6 | Cc1[nH]nc2ncnc(N)c12 [Compound 6] | 80% | 
7 | CN(C)c1ccc(C=C2C(=O)NC(=S)NC2=O)cc1 [Compound 7] |  | IC50: 21 µM; LE (ligand efficiency, DF2): 0.34 kcal/(mol HAC)
8 | O=C1NC(=S)NC(=O)C1=NNc1cccc(C(=O)O)c1 [Compound 8] | 5% | IC50: 6 µM; LE (ligand efficiency, DF2): 0.36 kcal/(mol HAC)
9 | Cc1cccc(NC=C2C(=O)NC(=S)NC2=O)n1 [Compound 9] |  | IC50: 30 µM; LE (ligand efficiency, DF2): 0.34 kcal/(mol HAC)
10 | COc1ccc(C=C2C(=O)NC(=S)NC2=O)cc1C [Compound 10] | 48% | IC50: 28 µM; LE (ligand efficiency, DF2): 0.33 kcal/(mol HAC)
11 | CC=CC=C1C(=O)NC(=O)NC1=O [Compound 11] | 30% | IC50: 29 µM; LE (ligand efficiency, DF2): 0.48 kcal/(mol HAC)
12 | COc1ccc(NC=C2C(=O)NC(=O)NC2=O)cc1 [Compound 12] |  | IC50: 40 µM; LE (ligand efficiency, DF2): 0.32 kcal/(mol HAC)
13 | O=c1cn[nH]c(=S)[nH]1 [Compound 13] | 5% | LE (ligand efficiency, DF2): 0.73 kcal/(mol HAC); IC50 [1]: 53 µM
14 | O=c1[nH]c(=S)[nH]c2n[nH]cc12 [Compound 15] | 17% | LE (ligand efficiency, DF2): 0.51 kcal/(mol HAC); IC50 [1]: 86 µM
15 | O=c1[nH]c(=S)[nH]c2nc[nH]c12 [Compound 16] | 2% | LE (ligand efficiency, DF2): 0.56 kcal/(mol HAC); IC50 [1]: 30 µM
16 | Cc1cc(=O)c(OCc2ccc(F)cc2)c[nH]1 [Compound S1] | 31% | IC50 [1]: 310 µM
17 | Cc1cc(O)c(OCC(=O)N=c2[nH]cc(C)s2)cn1 [Compound S6] | 60% | 
18 | CCSc1nnc(NC(C)=O)s1 [Compound S7] | 60% | 
19 | Cc1nc(O)c(C=Nc2ccc(Cl)cc2)c(O)n1 [Compound S8] | 21% | 
20 | CC(=O)N=c1[nH]nc(SCC(=O)NC2CCCCC2)s1 [Compound S10] | 50% | 
21 | COc1cc2[nH]c(=O)[nH]c(=O)c2cc1OC [Compound S12] | 60% | 
22 | Cc1cc(O)c2[nH]ncc2n1 [Compound S13] | 62% | 
23 | COC(=O)CNC(=O)COc1c[nH]c(C)cc1=O [Compound S15] | 75% | 
24 | C=CCc1cccc(C=Nc2c[nH]c(=O)[nH]c2=O)c1O [Compound S18] | 79% | 

Row | Compound | Residual signal at 1 mM concentration | also measured
25 | CN(C)c1cc(=O)[nH]c(=O)[nH]1 [Compound S19] | 85% | 
26 | O=C(Nc1nccs1)C(F)(F)F [Compound S20] | 87% | 
27 | Oc1ccnc(OC(F)F)c1 [Compound S21] | 87% | 
28 | Cc1cc(=O)c2sccc2[nH]1 [Compound S22] | 89% | 
29 | OCCNc1ccc(Cl)nn1 [Compound S23] | > 90% | 
30 | O=C(Nc1nnc[nH]1)C1CC1 [Compound S24] | > 90% | 
31 | CC(O)c1nc2cc(-c3cc(F)cc(Cl)c3)ccc2[nH]1 (centres unmarked) [Compound S25] | > 90% | 
32 | CCCc1nnc(NC(C)=O)s1 [Compound S26] | > 90% | 
33 | Cc1nc(O)c2sccc2n1 [Compound S27] | > 90% | 
34 | CCOC(=O)c1noc(C)n1 [Compound S28] | > 90% | 
35 | COc1cnc(Br)cc1O [Compound S29] | > 90% | 
36 | COc1cccc(-c2ccc3c(N)n[nH]c3n2)c1 [Compound S30] | > 90% | 
37 | FC(F)(F)c1cc(-c2ccc3ccccc3c2)n[nH]1 [Compound S31] | > 90% | 
38 | Cc1nnc(N)n(N)c1=O [Compound S32] | > 90% | 
39 | O=c1cc(O)cc(C(F)(F)F)[nH]1 [Compound S33] | > 90% | 
40 | CCc1cc(NC(=O)c2ccc(C)nc2)[nH]n1 [Compound S34] | > 90% | 
41 | Cc1n[nH]c(N)c1C#N [Compound S36] | > 90% | 
42 | N#Cc1c(C2CC2)n[nH]c1N [Compound S37] | > 90% | 
43 | NC(=O)c1cccnc1NCC1CC1 [Compound S39] | > 90% | 
44 | NCCC1C(=O)NC(=S)NC1=O [Compound S42] |  | IC50 [1]: 330 µM
45 | CC1(C)C(=O)NC(=S)NC1=O [Compound S43] | 11% | 
46 | O=C1CC(=O)NC(=S)N1 [Compound S44] | 79% | 
47 | CN1C(=O)CC(=O)NC1=S [Compound S45] | 75% | 
48 | Cn1cccc1C=C1C(=O)NC(=S)NC1=O [Compound S46] | 13% | 

Row | Compound | Residual signal at 1 mM concentration | also measured
49 | CNC=C1C(=O)NC(=S)NC1=O [Compound S47] |  | IC50 [1]: 91 µM
50 | CN(NC=C1C(=O)NC(=S)NC1=O)c1ccccc1 [Compound S49] | 54% | 
51 | Cc1cc(O)nc(NC=C2C(=O)NC(=S)NC2=O)n1 [Compound S50] | 9% | IC50 [1]: 57 µM
52 | CN(C)c1ccc(C=C2C(=O)NC(=S)NC2=O)o1 [Compound S51] | 35% | 
53 | CCOc1ccc(C=C2C(=O)NC(=S)NC2=O)cc1Cl [Compound S52] | 12% | LE (ligand efficiency, DF2): 0.29 kcal/(mol HAC); IC50 [1]: 55 µM
54 | Cc1n[nH]c(=S)[nH]c1=O [Compound S53] | 38% | 
55 | O=C(CCc1n[nH]c(=S)[nH]c1=O)Nc1ccccc1 [Compound S55] |  | IC50 [1]: 190 µM
56 | CCNc1cc(=O)[nH]c(=O)[nH]1 [Compound S56] | 51% | 
57 | CNc1ncnc2[nH]nc(C)c12 [Compound S57] | 88% | 
58 | O=c1[nH]c(=O)c2cn[nH]c2[nH]1 [Compound S58] | 47% | 
59 | O=c1[nH]c(=S)[nH]c2sc3c(c12)CCC3 [Compound S59] | 35% | IC50 [1]: 53 µM
60 | CC1CCc2c(sc3[nH]c(=S)[nH]c(=O)c23)C1 (centres unmarked) [Compound S60] | 24% | IC50 [1]: 80 µM
61 | O=c1[nH]c(=O)c2ccsc2[nH]1 [Compound S61] |  | IC50 [1]: 290 µM
62 | O=c1[nH]c(=S)[nH]c2cnccc12 [Compound S62] |  | IC50 [1]: 170 µM
63 | O=c1[nH]c(=S)[nH]c2[nH]ccc12 [Compound S63] | 28% | % at 100 µM: 49%
64 | O=c1[nH]c(=S)[nH]c2ccsc12 [Compound S64] |  | % at 100 µM: 36%
65 | CCc1cc2c(=O)[nH]c(SC)nc2s1 [Compound S65] |  | % at 100 µM: 68%
66 | Cc1cc2c(=O)n(C3CC3)c(=S)[nH]c2s1 [Compound S66] | 23% | % at 100 µM: 25%
67 | Nn1c(=S)[nH]c2sccc2c1=O [Compound S67] | 23% | % at 100 µM: 40%
68 | Nn1c(=S)[nH]c2scc(-c3ccccc3)c2c1=O [Compound S68] | 36% | % at 100 µM: 32%
69 | CCN1CCc2c(sc3[nH]c(=S)n(N)c(=O)c23)C1 [Compound S69] |  | IC50 [1]: 23 µM
70 | O=c1[nH]c(=S)[nH]c2scc(-c3cccs3)c12 [Compound S70] | 49% | % at 100 µM: 45%
71 | COc1cccc2c1OCc1sc3[nH]c(=S)[nH]c(=O)c3c1-2 [Compound S73] | 64% | % at 100 µM: 22%
